{"source": "patent US10357036B2", "about": "“Compounds for controlling arthropods” (priority 2015, dated 2019)", "key": {"[1]": {"system": "Musca domestica", "test": "Musca domestica test", "type": "in vivo", "conditions": "100 ppm; adult houseflies; after 2 days", "description": "(§1) • Solvent: dimethyl sulfoxide\nTo produce a suitable active ingredient formulation, 10 mg of active ingredient are mixed with 0.5 ml of dimethyl sulfoxide, and the concentrate is diluted with water to the desired concentration.\nVessels containing a sponge treated with sugar solution and the active ingredient formulation of the desired concentration are populated with 10 adult houseflies (Musca domestica)."}, "[2]": {"system": "Tetranychus urticae", "test": "Tetranychus urticae spray test, OP-resistant (bean leaf discs)", "type": "in vivo", "conditions": "100 g/ha; after 6 days", "description": "After 6 days, the efficacy in % is determined."}, "[3]": {"system": "Phaedon cochleariae", "test": "Phaedon cochleariae spray test", "conditions": "100 g/ha; after 7 days"}, "[4]": {"system": "Ctenocephalides felis", "test": "Ctenocephalides felis in vitro contact test with adult cat fleas", "type": "in vivo", "conditions": "application rate 5 μg/cm^2 (=500 g/ha); after 48 h; dead or moribund fleas", "description": "(§2) For the coating of the test tubes, 9 mg of active ingredient are first dissolved in 1 ml of acetone p.a. and then diluted to the desired concentration with acetone p.a. 250 μl of the solution are distributed homogeneously on the inner walls and the base of a 25 ml glass tube by turning and rocking on an orbital shaker (rocking rotation at 30 rpm for 2 h). With 900 ppm of active ingredient solution and internal surface area 44.7 cm^2, given homogeneous distribution, an area-based dose of 5 μg/cm^2 is achieved.\nAfter the solvent has evaporated off, the tubes are populated with 5-10 adult cat fleas (Ctenocephalides felis), sealed with a perforated plastic lid and incubated in a horizontal position at room temperature and ambient humidity. After 48 h, efficacy is determined. To this end, the tubes are stood upright and the fleas are knocked to the base of the tube. Fleas which remain motionless at the base or move in an uncoordinated manner are considered to be dead or moribund.\n100% efficacy means that all the fleas were dead or moribund. 0% efficacy means that no fleas were harmed."}, "[5]": {"system": "Ctenocephalides felis", "test": "Ctenocephalides felis oral test", "type": "in vivo", "conditions": "100 ppm in citrated cattle blood; after 2 days", "description": "• Solvent: Dimethyl Sulfoxide\nTo produce a suitable active ingredient formulation, 10 mg of active ingredient are mixed with 0.5 ml of dimethyl sulfoxide. Dilution with citrated cattle blood gives the desired concentration.\nAbout 20 unfed adult cat fleas (Ctenocephalides fells) are placed into a chamber which is closed at the top and bottom with gauze. A metal cylinder whose bottom end is closed with parafilm is placed onto the chamber. The cylinder contains the blood/active ingredient formulation, which can be imbibed by the fleas through the parafilm membrane."}, "[6]": {"system": "Spodoptera frugiperda", "test": "Spodoptera frugiperda spray test", "type": "in vivo", "conditions": "100 g/ha; after 7 days"}, "[7]": {"system": "Boophilus microplus", "test": "Boophilus microplus injection test", "type": "in vivo", "conditions": "20 μg/animal; assessed after 7 days", "description": "as §1\n1 μl of the active ingredient solution is injected into the abdomen of 5 engorged adult female cattle ticks (Boophilus microplus). The animals are transferred into dishes and kept in a climate-controlled room."}, "[8]": {"system": "Rhipicephalus sanguineus", "test": "Rhipicephalus sanguineus in vitro contact test with adult brown dog ticks", "type": "in vivo", "conditions": "application rate 5 μg/cm^2 (=500 g/ha); after 48 h; dead or moribund ticks", "description": "as §2\nAfter the solvent has evaporated off, the tubes are populated with 5-10 adult dog ticks (Rhipicephalus sanguineus), sealed with a perforated plastic lid and incubated in a horizontal position in the dark at room temperature and ambient humidity. After 48 h, efficacy is determined. To this end, the ticks are knocked to the base of the tube and incubated on a hotplate at 45-50° C. for not more than 5 min. Ticks which remain motionless on the base or move in such an uncoordinated manner that they are unable to deliberately avoid the heat by climbing upwards are considered to be dead or moribund.\nAn efficacy of 100% means that all the ticks were dead or moribund. 0% efficacy means that none of the ticks were harmed."}}}
{"smiles": "CC(C)C(=O)NCc1cc(-c2cnn(-c3c(Cl)cc(C(F)(C(F)(F)F)C(F)(F)F)cc3C(F)F)c2)ccc1F", "note": "[Ia-60]", "values": [{"measurement": "efficacy (rate of extermination)", "setting": "[1]", "value": 100, "unit": "%"}, {"measurement": "efficacy", "setting": "[2]", "value": 100, "unit": "%"}, {"measurement": "efficacy", "setting": "[3]", "value": 100, "unit": "%"}, {"measurement": "efficacy", "setting": "[4]", "value": 100, "unit": "%"}, {"measurement": "efficacy (rate of extermination)", "setting": "[5]", "value": 100, "unit": "%"}, {"measurement": "efficacy", "setting": "[6]", "value": 100, "unit": "%"}, {"measurement": "efficacy (laying of fertile eggs)", "setting": "[7]", "value": 100, "unit": "%"}]}
{"smiles": "CC(=O)N(C)Cc1cc(-c2cnn(-c3c(Cl)cc(C(F)(C(F)(F)F)C(F)(F)F)cc3Cl)c2)ccc1F", "note": "[Ia-64]", "values": [{"measurement": "efficacy (rate of extermination)", "setting": "[1]", "value": 100, "unit": "%"}, {"measurement": "efficacy", "setting": "[2]", "value": 100, "unit": "%"}, {"measurement": "efficacy", "setting": "[3]", "value": 100, "unit": "%"}, {"measurement": "efficacy", "setting": "[4]", "value": 100, "unit": "%"}, {"measurement": "efficacy (rate of extermination)", "setting": "[5]", "value": 100, "unit": "%"}, {"measurement": "efficacy", "setting": "[6]", "value": 100, "unit": "%"}, {"measurement": "efficacy (laying of fertile eggs)", "setting": "[7]", "value": 100, "unit": "%"}]}
{"smiles": "CC(=O)NCc1cc(-c2cnn(-c3c(Cl)cc(C(F)(C(F)(F)F)C(F)(F)F)cc3OC(F)(F)F)c2)cnc1Cl", "note": "[Ia-131]", "values": [{"measurement": "efficacy (rate of extermination)", "setting": "[1]", "value": 100, "unit": "%"}, {"measurement": "efficacy", "setting": "[3]", "value": 100, "unit": "%"}, {"measurement": "efficacy", "setting": "[4]", "value": 100, "unit": "%"}, {"measurement": "efficacy (rate of extermination)", "setting": "[5]", "value": 100, "unit": "%"}, {"measurement": "efficacy", "setting": "[6]", "value": 100, "unit": "%"}, {"measurement": "efficacy (laying of fertile eggs)", "setting": "[7]", "value": 100, "unit": "%"}]}
{"smiles": "CCC(=O)NCc1cc(-c2cnn(-c3c(Cl)cc(C(F)(C(F)(F)F)C(F)(F)F)cc3OC(F)(F)F)c2)ccc1F", "note": "[Ia-26]", "values": [{"measurement": "efficacy (rate of extermination)", "setting": "[1]", "value": 100, "unit": "%"}, {"measurement": "efficacy", "setting": "[2]", "value": 90, "unit": "%"}, {"measurement": "efficacy", "setting": "[8]", "value": 80, "unit": "%"}, {"measurement": "efficacy", "setting": "[3]", "value": 100, "unit": "%"}, {"measurement": "efficacy (rate of extermination)", "setting": "[5]", "value": 100, "unit": "%"}, {"measurement": "efficacy", "setting": "[6]", "value": 100, "unit": "%"}, {"measurement": "efficacy (laying of fertile eggs)", "setting": "[7]", "value": 100, "unit": "%"}]}
{"smiles": "O=C(CC(F)(F)F)NCc1cc(-c2cnn(-c3c(Cl)cc(C(F)(C(F)(F)F)C(F)(F)F)cc3OC(F)(F)F)c2)ccc1F", "note": "[Ia-19]", "values": [{"measurement": "efficacy (rate of extermination)", "setting": "[1]", "value": 100, "unit": "%"}, {"measurement": "efficacy", "setting": "[2]", "value": 90, "unit": "%"}, {"measurement": "efficacy", "setting": "[8]", "value": 100, "unit": "%"}, {"measurement": "efficacy", "setting": "[3]", "value": 100, "unit": "%"}, {"measurement": "efficacy (rate of extermination)", "setting": "[5]", "value": 100, "unit": "%"}, {"measurement": "efficacy", "setting": "[6]", "value": 100, "unit": "%"}, {"measurement": "efficacy (laying of fertile eggs)", "setting": "[7]", "value": 100, "unit": "%"}]}
{"smiles": "CC(=O)NCc1cccc(-c2cnn(-c3c(C)cc(C(F)(C(F)(F)F)C(F)(F)F)cc3Cl)c2)c1", "note": "[Ia-68]", "values": [{"measurement": "efficacy (rate of extermination)", "setting": "[1]", "value": 100, "unit": "%"}, {"measurement": "efficacy", "setting": "[2]", "value": 100, "unit": "%"}, {"measurement": "efficacy", "setting": "[8]", "value": 80, "unit": "%"}, {"measurement": "efficacy", "setting": "[3]", "value": 100, "unit": "%"}, {"measurement": "efficacy (rate of extermination)", "setting": "[5]", "value": 100, "unit": "%"}, {"measurement": "efficacy", "setting": "[6]", "value": 83, "unit": "%"}, {"measurement": "efficacy (laying of fertile eggs)", "setting": "[7]", "value": 100, "unit": "%"}]}
{"smiles": "CSc1cc(C(F)(C(F)(F)F)C(F)(F)F)cc(Cl)c1-n1cc(-c2ccc(F)c(CNC(C)=O)c2)cn1", "note": "[Ia-07]", "values": [{"measurement": "efficacy (rate of extermination)", "setting": "[1]", "value": 100, "unit": "%"}, {"measurement": "efficacy", "setting": "[2]", "value": 100, "unit": "%"}, {"measurement": "efficacy", "setting": "[3]", "value": 100, "unit": "%"}, {"measurement": "efficacy", "setting": "[4]", "value": 100, "unit": "%"}, {"measurement": "efficacy (rate of extermination)", "setting": "[5]", "value": 100, "unit": "%"}, {"measurement": "efficacy", "setting": "[6]", "value": 83, "unit": "%"}, {"measurement": "efficacy (laying of fertile eggs)", "setting": "[7]", "value": 100, "unit": "%"}]}
{"smiles": "CC(=O)NCc1cc(-c2cnn(-c3c(Cl)cc(C(F)(C(F)(F)F)C(F)(F)F)cc3Cl)c2)cnc1Cl", "note": "[Ia-130]", "values": [{"measurement": "efficacy (rate of extermination)", "setting": "[1]", "value": 100, "unit": "%"}, {"measurement": "efficacy", "setting": "[2]", "value": 90, "unit": "%"}, {"measurement": "efficacy", "setting": "[3]", "value": 100, "unit": "%"}, {"measurement": "efficacy", "setting": "[4]", "value": 100, "unit": "%"}, {"measurement": "efficacy (rate of extermination)", "setting": "[5]", "value": 100, "unit": "%"}, {"measurement": "efficacy", "setting": "[6]", "value": 100, "unit": "%"}, {"measurement": "efficacy (laying of fertile eggs)", "setting": "[7]", "value": 100, "unit": "%"}]}
{"smiles": "CCOCN(Cc1cc(-c2cnn(-c3c(Cl)cc(C(F)(C(F)(F)F)C(F)(F)F)cc3Cl)c2)ccc1Cl)C(C)=O", "note": "[Ia-117]", "values": [{"measurement": "efficacy (rate of extermination)", "setting": "[1]", "value": 100, "unit": "%"}, {"measurement": "efficacy", "setting": "[3]", "value": 100, "unit": "%"}, {"measurement": "efficacy", "setting": "[4]", "value": 100, "unit": "%"}, {"measurement": "efficacy (rate of extermination)", "setting": "[5]", "value": 100, "unit": "%"}, {"measurement": "efficacy", "setting": "[6]", "value": 100, "unit": "%"}, {"measurement": "efficacy (laying of fertile eggs)", "setting": "[7]", "value": 100, "unit": "%"}]}
{"smiles": "CCC(=O)NCc1c(F)ccc(-c2cnn(-c3c(Cl)cc(C(F)(C(F)(F)F)C(F)(F)F)cc3OC(F)F)c2)c1F", "note": "[Ia-157]", "values": [{"measurement": "efficacy (rate of extermination)", "setting": "[1]", "value": 100, "unit": "%"}, {"measurement": "efficacy", "setting": "[2]", "value": 90, "unit": "%"}, {"measurement": "efficacy", "setting": "[8]", "value": 100, "unit": "%"}, {"measurement": "efficacy", "setting": "[3]", "value": 100, "unit": "%"}, {"measurement": "efficacy (rate of extermination)", "setting": "[5]", "value": 100, "unit": "%"}, {"measurement": "efficacy", "setting": "[6]", "value": 100, "unit": "%"}, {"measurement": "efficacy (laying of fertile eggs)", "setting": "[7]", "value": 100, "unit": "%"}]}
{"smiles": "Cc1cc(C(F)(C(F)(F)F)C(F)(F)F)cc(C)c1-n1cc(-c2ccc(F)c(CNC(=O)C3CC3)c2)cn1", "note": "[Ia-04]", "values": [{"measurement": "efficacy (rate of extermination)", "setting": "[1]", "value": 100, "unit": "%"}, {"measurement": "efficacy", "setting": "[2]", "value": 100, "unit": "%"}, {"measurement": "efficacy", "setting": "[8]", "value": 100, "unit": "%"}, {"measurement": "efficacy", "setting": "[3]", "value": 100, "unit": "%"}, {"measurement": "efficacy (rate of extermination)", "setting": "[5]", "value": 100, "unit": "%"}, {"measurement": "efficacy", "setting": "[6]", "value": 100, "unit": "%"}, {"measurement": "efficacy (laying of fertile eggs)", "setting": "[7]", "value": 100, "unit": "%"}]}
